According to US20260028354A1, “TETRAHYDRONAPHTHALENE DERIVATIVES AS ESTROGEN RECEPTOR DEGRADERS” (REGENT OF THE UNIVERSITY OF MICHIGAN, priority 2022, published 2026):

Test: Western blot analysis for "B" compounds
Type: cell-based
Conditions: read-out: Traditional Western Degradation Potency (DC50)
Summary of the method: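 Compound-treated cells lysed in RIPA buffer with protease inhibitors; equal protein (BCA) run on 10% SDS-PAGE, transferred to PVDF and probed with target antibodies. Band intensities quantified by densitometry and normalized to GAPDH.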

Row | Molecule | DC50 [nM]
1 | O=C1CCC(N2C(=O)c3cc4c(cc3C2=O)CN(CC(=O)N2CCC3(CC2)CCN(c2ccc([C@H]5c6ccc(O)cc6CC[C@H]5c5ccccc5)nc2)CC3)C4)C(=O)N1 (mixture of isomers) [Compound B86, 2-(2,6-dioxopiperidin-3-yl)-6-(2-(9-(6-((1R,2R)-6-hydroxy-2-phenyl-1,2,3,4-tetrahydronaphthalen-1-yl)pyridin-3-yl)-3,9-diazaspiro[5.5]undecan-3-yl)-2-oxoethyl)-6,7-dihydropyrrolo[3,4-f]isoindole-1,3(2H,5H)-dione] | > 100
2 | O=C1CCC(N2C(=O)c3cc4c(cc3C2=O)CN(CC2CCC3(CC2)CCN(C(=O)c2ccc([C@@H]5c6ccc(O)cc6CC[C@@H]5c5ccccc5)cc2)CC3)C4)C(=O)N1 (stereo partly drawn) [Compound B287, 2-(2,6-dioxopiperidin-3-yl)-6-((3-(4-((1R,2S)-6-hydroxy-2-phenyl-1,2,3,4-tetrahydronaphthalen-1-yl)benzoyl)-3-azaspiro[5.5]undecan-9-yl)methyl)-6,7-dihydropyrrolo[3,4-f]isoindole-1,3(2H,5H)-dione] | > 100
3 | O=C1CCC(N2C(=O)c3cc4c(cc3C2=O)CN(C2CCC(CNC3CN(c5ccc([C@@H]6c7ccc(O)cc7CC[C@@H]6c6ccccc6)cc5)C3)CC2)C4)C(=O)N1 (stereo partly drawn) [Compound B181, 2-(2,6-dioxopiperidin-3-yl)-6-(4-(((1-(4-((1R,2S)-6-hydroxy-2-phenyl-1,2,3,4-tetrahydronaphthalen-1-yl)phenyl)azetidin-3-yl)amino)methyl)cyclohexyl)-6,7-dihydropyrrolo[3,4-f]isoindole-1,3(2H,5H)-dione] | > 100
4 | O=C1CCC(N2C(=O)c3cc4c(cc3C2=O)CN(CC2CCN(CC3CN(c5ccc([C@@H]6c7ccc(O)cc7CC[C@@H]6c6ccc(F)cc6)cc5)C3)CC2)C4)C(=O)N1 (stereo partly drawn) [Compound B70, 2-(2,6-dioxopiperidin-3-yl)-6-((1-((1-(4-((1R,2S)-2-(4-fluorophenyl)-6-hydroxy-1,2,3,4-tetrahydronaphthalen-1-yl)phenyl)azetidin-3-yl)methyl)piperidin-4-yl)methyl)-6,7-dihydropyrrolo[3,4-f]isoindole-1,3(2H,5H)-dione] | > 100
5 | O=C1CCC(N2C(=O)c3cc4c(cc3C2=O)CN(C(=O)CN2CCC3(CC2)CCN(c2ccc([C@@H]5c6ccc(O)cc6CC[C@@H]5c5ccccc5)c(F)c2)C3)C4)C(=O)N1 (mixture of isomers) [Compound B32, 2-(2,6-dioxopiperidin-3-yl)-6-(2-(2-(3-fluoro-4-((1S,2S)-6-hydroxy-2-phenyl-1,2,3,4-tetrahydronaphthalen-1-yl)phenyl)-2,8-diazaspiro[4.5]decan-8-yl)acetyl)-6,7-dihydropyrrolo[3,4-f]isoindole-1,3(2H,5H)-dione] | > 100
6 | O=C1CCC(N2C(=O)c3cc4c(cc3C2=O)CN([C@H]2CC[C@H](NC3CN(c5ccc([C@@H]6c7ccc(O)cc7CC[C@@H]6c6ccccc6)cc5)C3)CC2)C4)C(=O)N1 (stereo partly drawn) [Compound B103, 2-(2,6-dioxopiperidin-3-yl)-6-((1R,4r)-4-((1-(4-((1R,2S)-6-hydroxy-2-phenyl-1,2,3,4-tctrahydronaphthalen-1-yl)phenyl)azetidin-3-yl)amino)cyclohexyl)-6,7-dihydropyrrolo[3,4-f]isoindole-1,3(2H,5H)-dione] | > 100
7 | 3-(6-((1S,4s)-4-(3-((4-((1R,2S)-6-hydroxy-2-phenyl-1,2,3,4- tetrahydronaphthalcn-1-yl)phenyl)amino)azctidin-1- yl)cyclohexane-1-carbonyl)-1-oxo-3,5,6,7- tetrahydropyrrolo[3,4-f]isoindol-2(1H)-yl)piperidine-2,6-dione [Compound B110] | > 100
8 | O=C1CCC(N2C(=O)c3cc4c(cc3C2=O)CN(CC(=O)N2CCC(Oc3ccc([C@@H]5c6ccc(O)cc6CC[C@@H]5c5ccccc5)cc3)CC2)C4)C(=O)N1 (stereo partly drawn) [Compound B284, 2-(2,6-dioxopiperidin-3-yl)-6-(2-(4-(4-((1R,2S)-6-hydroxy-2-phenyl-1,2,3,4-tetrahydronaphthalen-1-yl)phenoxy)piperidin-1-yl)-2-oxoethyl)-6,7-dihydropyrrolo[3,4-f]isoindole-1,3(2H,5H)-dione] | > 100
9 | O=C1CCC(N2C(=O)c3cc4c(cc3C2=O)CN(CC(=O)N2CCC(n3cc(-c5ccc([C@@H]6c7ccc(O)cc7CC[C@@H]6c6ccccc6)cc5)cn3)CC2)C4)C(=O)N1 (stereo partly drawn) [Compound B58, 2-(2,6-dioxopiperidin-3-yl)-6-(2-(4-(4-(4-((1R,2S)-6-hydroxy-2-phenyl-1,2,3,4-tetrahydronaphthalen-1-yl)phenyl)-1H-pyrazol-1-yl)piperidin-1-yl)-2-oxoethyl)-6,7-dihydropyrrolo[3,4-f]isoindole-1,3(2H,5H)-dione] | > 100
10 | O=C1CCC(N2C(=O)c3cc4c(cc3C2=O)CN(CC(=O)N2CC3(CCN(c5ccc([C@H]6c7ccc(O)cc7CC[C@H]6c6ccccc6)cc5)CC3)C2)C4)C(=O)N1 (stereo partly drawn) [Compound B179, 2-(2,6-dioxopiperidin-3-yl)-6-(2-(7-(4-((1S,2R)-6-hydroxy-2-phenyl-1,2,3,4-tetrahydronaphthalen-1-yl)phenyl)-2,7-diazaspiro[3.5]nonan-2-yl)-2-oxoethyl)-6,7-dihydropyrrolo[3,4-f]isoindole-1,3(2H,5H)-dione] | > 100
11 | O=C1CCC(N2C(=O)c3cc4c(cc3C2=O)CCN(C(=O)CN2CC3(CCN(c5ccc([C@@H]6c7ccc(O)cc7CC[C@@H]6c6ccccc6)cc5)CC3)C2)CC4)C(=O)N1 (stereo partly drawn) [Compound B42, 2-(2,6-dioxopiperidin-3-yl)-7-(2-(7-(4-((1R,2S)-6-hydroxy-2-phenyl-1,2,3,4-tetrahydronaphthalen-1-yl)phenyl)-2,7-diazaspiro[3.5]nonan-2-yl)acetyl)-6,7,8,9-tetrahydroazepino[4,5-f]isoindole-1,3(2H,5H)-dione] | > 100
12 | O=C1CCC(N2C(=O)c3cc4c(cc3C2=O)CN(CC(=O)N2CC(n3cc(-c5ccc([C@@H]6c7ccc(O)cc7CC[C@@H]6c6ccccc6)cc5)cn3)C2)C4)C(=O)N1 (stereo partly drawn) [Compound B59, 2-(2,6-dioxopiperidin-3-yl)-6-(2-(3-(4-(4-((1R,2S)-6-hydroxy-2-phenyl-1,2,3,4-tetrahydronaphthalen-1-yl)phenyl)-1H-pyrazol-1-yl)azetidin-1-yl)-2-oxoethyl)-6,7-dihydropyrrolo[3,4-f]isoindole-1,3(2H,5H)-dione] | > 100

Results, then the molecule that gave them:

Row | DC50 [nM] | Molecule
13 | 10 to 100 | O=C1CCC(N2C(=O)c3cc4c(cc3C2=O)CN(CC(=O)N2CCC3(CC2)CCN(c2ccc([C@@H]5c6ccc(O)cc6CC[C@@H]5c5ccccc5)cc2)CC3)CC4)C(=O)N1 (mixture of isomers) [Compound B191, 2-(2,6-dioxopiperidin-3-yl)-6-(2-(9-(4-((1R,2S)-6-hydroxy-2-phenyl-1,2,3,4-tetrahydronaphthalen-1-yl)phenyl)-3,9-diazaspiro[5.5]undecan-3-yl)-2-oxoethyl)-5,6,7,8-tetrahydro-1H-pyrrolo[3,4-g]isoquinoline-1,3(2H)-dione]
14 | 10 to 100 | O=C1CCC(N2C(=O)c3cc4c(cc3C2=O)CN(CC(=O)N2CCC3(CC2)CCN(c2ccc([C@@H]5c6ccc(O)cc6CC[C@@H]5c5ccc(F)cc5)cc2)CC3)CC4)C(=O)N1 (mixture of isomers) [Compound B193, 2-(2,6-dioxopiperidin-3-yl)-6-(2-(9-(4-((1R,2S)-2-(4-fluorophenyl)-6-hydroxy-1,2,3,4-tetrahydronaphthalen-1-yl)phenyl)-3,9-diazaspiro[5.5]undecan-3-yl)-2-oxoethyl)-5,6,7,8-tetrahydro-1H-pyrrolo[3,4-g]isoquinoline-1,3(2H)-dione]
15 | < 10 | O=C1CCC(N2C(=O)c3cc4c(cc3C2=O)CN(C2CCN(CC3CN(c5ccc([C@@H]6c7ccc(O)cc7CC[C@@H]6c6ccccc6)cc5)C3)CC2)C4)C(=O)N1 (stereo partly drawn) [Compound B61, 2-(2,6-dioxopiperidin-3-yl)-6-(1-((1-(4-((1R,2S)-6-hydroxy-2-phenyl-1,2,3,4-tetrahydronaphthalen-1-yl)phenyl)azetidin-3-yl)methyl)piperidin-4-yl)-6,7-dihydropyrrolo[3,4-f]isoindole-1,3(2H,5H)-dione]
16 | 10 to 100 | O=C1CCC(N2C(=O)c3cc4c(cc3C2=O)CN(CC2CCN(C(=O)C3CN(c5ccc([C@@H]6c7ccc(O)cc7CC[C@@H]6c6ccccc6)cc5)C3)CC2)C4)C(=O)N1 (mixture of isomers) [Compound B35, 2-(2,6-dioxopiperidin-3-yl)-6-((1-(1-(4-((1R,2S)-6-hydroxy-2-phenyl-1,2,3,4-tctrahydronaphthalcn-1-yl)phcnyl)azctidinc-3-carbonyl)piperidin-4-yl)methyl)-6,7-dihydropyrrolo[3,4-f]isoindole-1,3(2H,5H)-dione]
17 | 10 to 100 | O=C1CCC(N2C(=O)c3cc4c(cc3C2=O)CN(C(=O)CN2CC3(CCN(c5ccc([C@@H]6c7ccc(O)cc7CC[C@@H]6c6ccc(F)cc6)cc5)CC3)C2)C4)C(=O)N1 (mixture of isomers) [Compound B19, 2-(2,6-dioxopiperidin-3-yl)-6-(2-(7-(4-((1R,2S)-2-(4-fluorophenyl)-6-hydroxy-1,2,3,4-tetrahydronaphthalen-1-yl)phenyl)-2,7-diazaspiro[3.5]nonan-2-yl)acetyl)-6,7-dihydropyrrolo[3,4-f]isoindole-1,3(2H,5H)-dione]
18 | 10 to 100 | O=C1CCC(N2C(=O)c3cc4c(cc3C2=O)CN(CC(=O)N2CCC3(CCN(c5ccc([C@@H]6c7ccc(O)cc7CC[C@@H]6c6ccccc6)cc5)CC3)C2)C4)C(=O)N1 (mixture of isomers) [Compound B185, 2-(2,6-dioxopiperidin-3-yl)-6-(2-(8-(4-((1R,2S)-6-hydroxy-2-phenyl-1,2,3,4-tetrahydronaphthalen-1-yl)phenyl)-2,8-diazaspiro[4.5]decan-2-yl)-2-oxoethyl)-6,7-dihydropyrrolo[3,4-f]isoindole-1,3(2H,5H)-dione]
19 | 10 to 100 | O=C1CCC(N2Cc3cc4c(cc3C2=O)CN(C(=O)C2CCC(NC3CN(c5ccc([C@@H]6c7ccc(O)cc7CC[C@@H]6c6ccccc6)cc5)C3)CC2)C4)C(=O)N1 (stereo partly drawn) [Compound B108, 3-(6-(4-((1-(4-((1R,2S)-6-hydroxy-2-phenyl-1,2,3,4-tetrahydronaphthalen-1-yl)phenyl)azetidin-3-yl)amino)cyclohexane-1-carbonyl)-1-oxo-3,5,6,7-tetrahydropyrrolo[3,4-f]isoindol-2(1H)-yl)piperidine-2,6-dione]
